# Laboratory results from patent publication US20040115245A1, “Autoinducer compounds and their uses” (priority 2001, published 2004).
# Entries after “also recorded” stand apart in the source; their conditions may differ.
# Key:
# [1] = tested on: sheep; test: Rumen dry matter disappearance of corn silage in cannulated sheep (in situ bags); format: in vivo; parameters: dry matter disappearance, OHHL − Control, Mean / dry matter disappearance, OHHL − Control, 4 Hours / dry matter disappearance, OHHL − Control, 8 Hours / dry matter disappearance, OHHL − Control, 12 Hours / dry matter disappearance, OHHL − Control, 24 Hours: concentration or dose not given beside the values
# Description: This experiment examined the effect of N-(3-oxohexanoyl)-L-homoserine lactone (OHHL) (CAS#: 143537626, molecular formula : C10H15NO4, molecular weight: 213) on rumen dry matter disappearance in vivo in sheep.
# A stock solution of OHHL (0.639 gram/L) was prepared as follows. Approximately 50% of the required volume of distilled water was warmed to approximately 30-40° C. and used to dissolve the required amount of OHHL powder. The volumetric flask was made up to volume using distilled water stored at room temperature. OHHL solution was applied to pelleted sheep ration at a rate of 3 kg per tonne of feed. Control feed was treated with 3 kg of distilled water per tonne.
# Initial attempts to administer OHHL by application of an aqueous solution to the outside of pelleted feed were modified as the sheep decreased intake of treated feed after a few days. Instead, OHHL was administered as an oral drench twice daily commencing on the afternoon of Day 11 of each period.
# A restricted quantity of pelleted ration was provided at a rate of approximately 0.5 kg/day (0.25 kg in the a.m. and 0.25 kg in the p.m.). Access to hay was restricted as needed to help ensure that sheep ration was consumed.
# On Days 12 and 13, pelleted ration (0.25 kg/animal) was issued to animals approximately 1 hour prior to introduction of bags into the rumen and again following removal of the 8-hour bag from each animal.
# One fresh sample of corn silage was dried to constant weight and allowed to cool to room temperature. A representative sub-sample was taken for dry matter determination. The sample was ground to pass a 1 mm screen, mixed and sampled for dry matter assay. The remaining sample was stored for in situ determination of dry matter disappearance from the rumen of cannulated sheep.
# Ankom rumen sampling bags were used in the study. Each bag was approximately 5 cm×10 cm, suitable for a one-gram sample. Pore size was 53±10 microns. Dried, ground corn silage was weighed (1.00±0.01 grams) into bags and sealed. A set of four bags was prepared per animal per day and these were attached to a string to facilitate placement in and removal from the rumen. A fifth bag served as a blank for each set of four bags. The blank was not placed in the rumen but was washed, processed and dried.
# A rumen cannula was surgically placed in each of five mature (approximately 3-year old) ewes. Following recovery from surgery, four of these animals were selected for use in the study. The fifth animal served as a reserve for use in the event of post-surgical complications in a study animal.
# Dry matter disappearance was measured by removing bags from the rumen at 4, 8, 12 and 24 hours and washed under cold running tap water together with a corresponding blank bag. Bags were then dried to constant weight. Measurement of dry matter disappearance was completed for each animal commencing on the morning of Day 12 and Day 13 of each period.
# A Latin Square Design was used to study the effects of two treatments:
# A, Control: 0 gram OHHL per tonne ration.
# B: Treated with the equivalent of 1.917 gram OHHL per tonne ration.
# Each period was of 14 days duration. A total of four study animals were blocked based on bodyweight (2 blocks). Animals within block were randomly assigned to Sequence 1 or 2:
# Data were analysed by a multiple regression analysis that included effects of treatment, animal, period, study day and hour.
# [2] = tested on: cultures of rumen fluid; test: In vitro digestion of grass silage by cultures of rumen fluid; format: cell-based, cow; conditions: OHHL 0, 200, 500 and 1000 nanomoles final in rumen fluid, 37° C., 10 hours, triplicate
# Description: Autoinducer compounds such as acyl homoserine lactones can have significant effects on cultures of bacteria. For example, they may be used to induce expression of antibiotics and extracellular enzymes. […] is the signal molecule for antibiotic production in Chromobacterium violaceum; butanoyl homoserine lactone triggers various phenotypes in Pseudomonas aeruginosa including the production of various enzymes and lectins. OHHL is known to have different effects on different species. For example, in Erwinia stewartii it induces production of exopolysaccharides, while in Vibrio species it promotes bioluminescence. Thus, in a complex mixed culture comprising many species including ruminobacter sp., prevotella sp., ruminococcus sp., it is hard to predict the specific phenotypes that will be induced by even the introduction of just one autoinducer compound. However. the global effect on rumen mixed culture fermentation can be measured in terms of the efficiency of digestion of forage. […] A control sample treated with water and four test samples treated with using nanomolar concentrations of OHHL are examined.
# Rumen fluid was collected from a healthy fistulated grass fed cow and immediately dispensed into 75 ml bottles. These bottles were kept at 37° C. […]
# [3] = tested on: broiler chickens; test: Growth performance and mortality of broiler chickens raised in floor pens; format: in vivo, broiler chickens (Cobb×Cobb); conditions: for Feed Conversion, Day 21-35: grower period; for Daily Feed intake, Day 0-21 / Daily Feed intake, Day 0-35 / Daily Feed intake, Day 21-35: per bird
# Description: This experiment examined the effect of N-(3-oxohexanoyl)-L-homoserine lactone (OHHL) (CAS #: 143537626, molecular formula : C10H15NO4, molecular weight: 213) on the growth performance and mortality of broiler chickens.
# A stock solution of 1 mM OHHL (0.213 g/L) was prepared as follows. Approximately 50% of the required volume of distilled water was warmed to approximately 30-40° C. and used to dissolve the required amount of OHHL powder. The solution was made up to volume using distilled water stored at room temperature. OHHL solution (0.213 g/L) was applied to treated crumbled feed at a rate of 3 kg per tonne. Control feed was treated with distilled water at a rate of 3 kg per tonne. The OHHL solution was stored for less than 2 days prior to application to feed.
# The antibiotic BMD®110 was used as a positive control in this study. The active ingredient is bacitracin methylene disalicyclate. The product contains 110 g of bacitracin activity per kg and is approved for prevention of necrotic enteritis in broiler chickens when given at a dose of 55 ppm in feed (500 g BMD®110/tonne feed).
# Coxistac® 6% premix was used as an ionophore in all study diets as an aid in the prevention of coccidiosis. The product contained 60 g salinomycin per kg and was administered at a dose of 60 ppm in feed (1 kg Coxistac® 6% premix per tonne feed).
# The experiment lasted 35 days with the day of placement of broiler chicks considered as day zero. A total of 1,200 male day-old broiler chickens (Cobb×Cobb) were assigned to treatment on day 0. Birds were vaccinated for Marek's disease at the hatchery. Twenty-four pens, each providing 45 square feet of floor space, were assigned to treatment groups. […] Adjacent pens were separated by a solid 12-inch high plastic barrier at bird level. A welded wire fence with 1-inch square openings was located on top of all barriers. Each pen was permanently identified by number and contained 50 birds on day zero. Each pen contained four nipple-type drinkers which provided clean drinking water ad libitum. Dry feed was provided ad libitum in tube-type feeders (one per pen) of 20 kg capacity.
# The barn was heated by five natural gas heaters which were equally spaced and positioned to warm incoming air at the north wall of the building. Air was exhausted by fans located on the south-facing wall of the building. Lighting program, barn temperature, and other management practices were typical of commercial broiler chicken producers in North America. Birds that were moribund and unable to reach food or water were culled and euthanised by carbon dioxide gas.
# Bodyweight, pen number and date of death were recorded for each bird that was culled or found dead. Mortalities were submitted to the pathologist to determine the apparent cause of death.
# A randomised complete block design was used to study the main and interactive-effects of OHHL (0 and 0.639 g/tonne) and dietary antibiotic ([…]) in a 2×2 factorial arrangement. Dietary treatments were as follows:
# There were four pens per block and six replicate blocks for a total of 24 pens.
# The feeding program was used in the study used a starter feed type on days 0 to 20 and a grower feed type on days 21 to 35. Diet formulation was representative of commercial diets in North America.
# A starter diets using a basal mix of starter diet containing either 0 or 55 ppm BMD was manufactured, pelleted, and crumbled. Bagged starter feed was treated with either distilled water (0 g OHHL per L) or OHHL solution (0.213 g OHHL per L) using a horizontal double ribbon mixer of 100 kg capacity. Distilled water or OHHL solution (0.213 g per L) were applied to crumbled feed at a rate of 3 kg per tonne feed. Grower diets were manufactured as described above for starters.
# The data collected consisted of:
# 1. Bodyweight on days 0, 21, and 35.
# 2. Amounts of each feed (starter and grower) consumed.
# 3. Bodyweight and date of death for birds which were culled or died.
# 4. […]
# [4] = individual treatment mean (2×2 factorial cell)
# [5] = individual treatment mean (2×2 factorial cell), OHHL 0.639 g/tonne feed, BMD 110 500 g/tonne
# [6] = main-effect mean pooled over the other factor
smiles,measurement,setting,value
"CCCC(=O)CC(=O)N[C@H]1CCOC1=O [OHHL, N-(3-oxohexanoyl)-L-homoserine lactone]","dry matter disappearance, 4 Hours","[1]; corn silage in rumen bags, 4 h incubation, OHHL equivalent to 1.917 gram per tonne ration, oral drench twice daily",53.0%
same,"dry matter disappearance, 8 Hours","[1]; corn silage in rumen bags, 8 h incubation, OHHL equivalent to 1.917 gram per tonne ration",57.8%
same,"dry matter disappearance, 12 Hours","[1]; corn silage in rumen bags, 12 h incubation, OHHL equivalent to 1.917 gram per tonne ration",65.7%
same,"dry matter disappearance, 24 Hours","[1]; corn silage in rumen bags, 24 h incubation, OHHL equivalent to 1.917 gram per tonne ration",74.5%
same,"dry matter disappearance, OHHL − Control, 4 Hours","[1]; difference to control, 4 h",4.16%
same,"dry matter disappearance, OHHL − Control, 8 Hours","[1]; difference to control, 8 h",−0.60%
same,"dry matter disappearance, OHHL − Control, 12 Hours","[1]; difference to control, 12 h",3.36%
same,"dry matter disappearance, OHHL − Control, 24 Hours","[1]; difference to control, 24 h",0.15%
same,"dry matter disappearance, OHHL − Control, Mean","[1]; difference to control, mean of all times (percentage units; P=0.105)",1.77%
same,"dry matter disappearance, Mean","[1]; mean over 4, 8, 12, 24 h",62.7%
same,mean percentage loss of weight of grass silage,[2],increased the mean percentage loss of weight
same,adverse effects on bird health / survival,"[3]; continuous administration in feed for 35 days, necropsy of all mortalities",no evidence of any adverse effect; also recorded: did not have an adverse effect on bird survival
same,"Mortality, Day 0-21",[3]; [4],1.0%
same,"Mortality, Day 0-35",[3]; [4],1.7%
same,"Mortality, Day 21-35",[3]; [4],0.7%
same,"Average bodyweight, Day 21",[3]; [5],0.796 kg
same,"Average bodyweight, Day 35",[3]; [5],1.934 kg
same,"Feed Conversion, Day 21-35",[3]; [4],1.812
same,"Feed Conversion, Day 0-35","[3]; individual treatment mean (2×2 factorial cell), overall period",1.629
same,"Daily Feed intake, Day 0-21",[3]; [4],0.049
same,"Daily Feed intake, Day 0-35",[3]; [4],0.088
same,"Daily Feed intake, Day 21-35",[3]; [4],0.147
same,"Feed Conversion, Day 0-21","[3]; individual treatment mean (2×2 factorial cell), starter period",1.357
same,"Mortality, Day 0-21",[3]; [6],1.3%
same,"Mortality, Day 0-35",[3]; [6],2.2%
same,"Mortality, Day 21-35",[3]; [6],0.8%
same,"Average bodyweight, Day 35","[3]; main-effect mean pooled over the other factor, OHHL 0.639 g/tonne feed, BMD 110 500 g/tonne",1.937 kg
same,"Feed Conversion, Day 21-35",[3]; [6],1.794
same,"Daily Feed intake, Day 0-21",[3]; [6],0.048
same,"Daily Feed intake, Day 0-35",[3]; [6],0.087
same,"Daily Feed intake, Day 21-35",[3]; [6],0.147
